28 compounds from patent publication US20200288710A1, “SUBSTITUTED SULPHONAMIDES FOR CONTROLLING ANIMAL PESTS” (BAYER CROPSCIENCE AKTIENGESELLSCHAFT, priority 2016, published 2020) can be followed below.

Structures are written as SMILES.

Type in all cases: in vivo
For one assay, the system named is Lucilia cuprina. As to the kind of experiment: Lucilia cuprina test. The conditions noted are these: 48 h, L1 larvae, after 2 days, read-out: efficacy (kill in %). Here is the method: Lucilia cuprina Test Solvent: dimethyl sulphoxide To produce a suitable preparation of active compound, 10 mg of active compound are mixed with 0.5 ml of dimethyl sulphoxide, and the concentrate is diluted with water to the desired concentration. About 20 L1 larvae of the Australian sheep blowfly (Lucilia cuprina) are transferred into a test vessel containing minced horsemeat and the active compound preparation of the desired concentration. After 2 days, the kill in % is determined. 100% means that all the larvae have been killed; 0% means that no larvae have been killed.

A further assay has as its system Meloidogyne incognita. As to the kind of experiment: Meloidogyne incognita test. Particulars: 336 h, lettuce, after 14 days, read-out: nematicidal efficacy (formation of galls). In short, it runs like this: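 Gall formation on lettuce roots scored after 14 days: 0% means gall count equals untreated control, 100% means none. Sand vessels held the compound (acetone concentrate diluted in water), southern root-knot nematode egg/larvae suspension and lettuce seeds.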

The test system of assay [1] is Myzus persicae. As to the kind of experiment: Myzus persicae spray test (Chinese cabbage leaf discs). Particulars: foliar, 120 h, 500 g/ha, after 5-6 days, read-out: efficacy. In short, it runs like this: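 Formulated compound in acetone/dimethylformamide, diluted in water with 1000 ppm emulsifier, was sprayed onto Brassica pekinensis leaf discs carrying mixed-stage Myzus persicae. Percent mortality was read 5-6 days later (0% = no aphids killed, 100% = all killed).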

In assay [2] the test system is Myzus persicae. Kind of assay: Myzus persicae oral test. Particulars: 120 h, 20 ppm, oral uptake, after 5 days, read-out: efficacy. In short, it runs like this: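 Aphids of mixed ages imbibe, through parafilm, compound solution (acetone stock, water-diluted) combined with sugar-supplemented IPL41 medium to 200 μl. Efficacy read at day 5 as percent killed, 0% meaning no deaths.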

A further assay has as its system Phaedon cochleariae. Kind of assay: Phaedon cochleariae spray test. Particulars: foliar, 168 h, Chinese cabbage leaf discs, larvae, after 7 days, read-out: efficacy. The gist of the method: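 Mortality of beetle larvae scored at day 7, expressed as % (0% none killed, 100% all). Formulation: compound in solvent, made up and further diluted with emulsifier-containing water (1000 ppm emulsifier).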

As for `Cn1cc(C(=O)NS(=O)(=O)c2ccccc2C(F)(F)F)nc1-c1c(F)cccc1Cl` [Example 109], the pest or weed control at 100 ppm with Lucilia cuprina turned out to be 100%. For the same compound, the pest or weed control at 20 ppm was determined as 90% in the assay on Meloidogyne incognita and 100% in the assay with Myzus persicae [2]. In addition, the pest or weed control at 500 g/ha in the assay on Myzus persicae [1] was found to be 100%.

For `CSc1ccccc1S(=O)(=O)NC(=O)c1cn(C)c(-c2c(F)cccc2F)n1` [Example 383], in the assay on Lucilia cuprina, the pest or weed control at 100 ppm came to 100%. For the same compound, the pest or weed control at 500 g/ha in the assay with Myzus persicae [1] and with Phaedon cochleariae was 100% in each case. In the assay with Myzus persicae [2], the pest or weed control at 20 ppm stood at 100%.

On to `Cn1cc(C(=O)NS(=O)(=O)c2c(Cl)cccc2Cl)nc1-c1c(F)cccc1Cl` [Example 108], for which the pest or weed control at 100 ppm in the assay with Lucilia cuprina worked out at 95%. The pest or weed control at 20 ppm in the assay on Meloidogyne incognita was 90%; in the assay with Myzus persicae [2] it was 100%. In addition, the pest or weed control at 500 g/ha with Myzus persicae [1] and in the assay on Phaedon cochleariae was 100% throughout.

Turning to `COc1ccc(Cl)c(S(=O)(=O)NC(=O)c2cn(C)c(-c3c(F)cccc3F)n2)c1` [Example 92], in the assay on Lucilia cuprina, the pest or weed control at 100 ppm was 95%. The pest or weed control at 500 g/ha in the assay with Myzus persicae [1] was determined as 100%. In addition, in the assay with Myzus persicae [2], the pest or weed control at 20 ppm worked out at 100%.

Regarding `Cc1ccc(Cl)cc1S(=O)(=O)NC(=O)c1cn(C)c(-c2ccccc2Cl)n1` [Example 37], the pest or weed control at 100 ppm with Lucilia cuprina turned out to be 100%. Also, the pest or weed control at 20 ppm with Meloidogyne incognita and in the assay on Myzus persicae [2] was 100% in each case. The pest or weed control at 500 g/ha is 90% in the assay with Myzus persicae [1] and 100% in the assay with Phaedon cochleariae.

For the compound `Cc1ccccc1S(=O)(=O)NC(=O)c1cn(C)c(-c2cccc(Cl)c2Cl)n1` [Example 519], the pest or weed control at 100 ppm with Lucilia cuprina worked out at 100%. Further, the pest or weed control at 20 ppm with Meloidogyne incognita and in the assay with Myzus persicae [2] was 100% in each case. Also, the pest or weed control at 500 g/ha in the assay with Myzus persicae [1] turned out to be 90%; in the assay with Phaedon cochleariae, 100%.

In the case of `Cn1cc(C(=O)NS(=O)(=O)c2ccccc2Cl)nc1-c1ncccc1Cl` [Example 539], the pest or weed control at 100 ppm in the assay with Lucilia cuprina was 100%. Besides, the pest or weed control at 500 g/ha with Myzus persicae [1] is 90%. Also, in the assay with Myzus persicae [2], the pest or weed control at 20 ppm amounted to 100%.

Turning to `Cn1cc(C(=O)NS(=O)(=O)c2ccccc2I)nc1-c1c(F)cccc1F` [Example 120], the pest or weed control at 100 ppm with Lucilia cuprina came to 100%. Further, the pest or weed control at 20 ppm was 90% with Meloidogyne incognita and 100% in the assay with Myzus persicae [2]. Moreover, the pest or weed control at 500 g/ha in the assay with Myzus persicae [1] and with Phaedon cochleariae was 100% each time.

Regarding `Cc1cccc(C)c1S(=O)(=O)NC(=O)c1cn(C)c(-c2cccc(Cl)c2Cl)n1` [Example 558], in the assay with Lucilia cuprina, the pest or weed control at 100 ppm is 100%. Besides, the pest or weed control at 20 ppm came to 90% with Meloidogyne incognita and 100% with Myzus persicae [2]. In addition, the figures for the pest or weed control at 500 g/ha in the assay with Myzus persicae [1] and with Phaedon cochleariae were 90% and 100%, respectively.

Regarding `Cn1cc(C(=O)NS(=O)(=O)c2ccccc2C(F)(F)F)nc1-c1c(Cl)cccc1Cl` [Example 23], the pest or weed control at 100 ppm in the assay on Lucilia cuprina stood at 100%. Moreover, the pest or weed control at 500 g/ha in the assay with Myzus persicae [1] and with Phaedon cochleariae was 100% throughout. The pest or weed control at 20 ppm in the assay with Myzus persicae [2] was 100%.

Take `CCc1cccc(C)c1S(=O)(=O)NC(=O)c1cn(C)c(-c2c(F)cccc2F)n1` [Example 336]: the pest or weed control at 100 ppm in the assay with Lucilia cuprina worked out at 95%. In addition, the pest or weed control at 20 ppm in the assay on Meloidogyne incognita and in the assay on Myzus persicae [2] was 100% each time. The pest or weed control at 500 g/ha was 90% in the assay on Myzus persicae [1] and 100% with Phaedon cochleariae.

On to `Cc1ccccc1S(=O)(=O)NC(=O)c1cn(C)c(-c2ccccc2Cl)n1` [Example 54], for which the pest or weed control at 100 ppm in the assay with Lucilia cuprina amounted to 100%. In addition, the pest or weed control at 20 ppm in the assay on Meloidogyne incognita and in the assay with Myzus persicae [2] was 100% each time. Besides, in the assay with Myzus persicae [1], the pest or weed control at 500 g/ha is 100%.

`COc1cc(S(=O)(=O)NC(=O)c2cn(C)c(-c3c(F)cccc3F)n2)c(C)cc1Br` [Example 285]: the pest or weed control at 100 ppm in the assay with Lucilia cuprina came to 100%. In addition, the pest or weed control at 20 ppm in the assay with Meloidogyne incognita and with Myzus persicae [2] was 100% each time. The pest or weed control at 500 g/ha in the assay with Myzus persicae [1] was 90%; in the assay on Phaedon cochleariae it was 100%.

As to `Cc1ccccc1S(=O)(=O)NC(=O)c1cn(C)c(-c2c(F)cccc2F)n1` [Example 27], the pest or weed control at 100 ppm in the assay on Lucilia cuprina came to 100%. Also, the figures for the pest or weed control at 20 ppm with Meloidogyne incognita and in the assay with Myzus persicae [2] were 90% and 100%, respectively. In addition, the pest or weed control at 500 g/ha in the assay on Myzus persicae [1] and with Phaedon cochleariae was 100% in each case.

As to `CCc1ccccc1S(=O)(=O)NC(=O)c1cn(C)c(-c2ncccc2F)n1` [Example 572], the pest or weed control at 100 ppm in the assay with Lucilia cuprina turned out to be 100%. Moreover, the values for the pest or weed control at 500 g/ha with Myzus persicae [1] and in the assay with Phaedon cochleariae were 100% and 83%, respectively. For the same compound, the pest or weed control at 20 ppm with Myzus persicae [2] was 100%.

For the compound `Cn1cc(C(=O)NS(=O)(=O)c2cc(Cl)ccc2Cl)nc1-c1ccccc1Cl` [Example 56], the pest or weed control at 100 ppm in the assay on Lucilia cuprina stood at 100%. The values for the pest or weed control at 20 ppm in the assay with Meloidogyne incognita and in the assay with Myzus persicae [2] were 90% and 100%, respectively. Besides, the pest or weed control at 500 g/ha with Myzus persicae [1] and in the assay with Phaedon cochleariae was 100% in each case.

`COc1ccc(Br)cc1S(=O)(=O)NC(=O)c1cn(C)c(-c2c(F)cccc2F)n1` [Example 18]: the pest or weed control at 100 ppm in the assay on Lucilia cuprina is 100%. Besides, the pest or weed control at 20 ppm in the assay on Meloidogyne incognita came to 90%; in the assay with Myzus persicae [2] it was 100%. The pest or weed control at 500 g/ha in the assay with Myzus persicae [1] and in the assay with Phaedon cochleariae was 100% throughout.

Turning to `Cc1ccccc1S(=O)(=O)NC(=O)c1cc(C)n(-c2ncccc2Cl)n1` [Example 274], in the assay on Lucilia cuprina, the pest or weed control at 100 ppm came out at 95%. For the same compound, the pest or weed control at 20 ppm worked out at 90% with Meloidogyne incognita and 100% with Myzus persicae [2]. In the assay with Myzus persicae [1], the pest or weed control at 500 g/ha was found to be 100%.

As for `COc1ccc(C)c(S(=O)(=O)NC(=O)c2cn(C)c(-c3c(F)cccc3F)n2)c1` [Example 401], the pest or weed control at 100 ppm with Lucilia cuprina was found to be 100%. In addition, the pest or weed control at 20 ppm was 90% in the assay on Meloidogyne incognita and 100% in the assay with Myzus persicae [2]. In addition, the pest or weed control at 500 g/ha with Myzus persicae [1] and in the assay with Phaedon cochleariae was 100% each time.

As to `Cc1ccccc1S(=O)(=O)NC(=O)c1cn(C)c(-c2c(Cl)cccc2Cl)n1` [Example 25], the pest or weed control at 100 ppm with Lucilia cuprina stood at 100%. In addition, the pest or weed control at 500 g/ha in the assay with Myzus persicae [1] worked out at 100%. In addition, in the assay with Myzus persicae [2], the pest or weed control at 20 ppm is 100%.

Turning to `Cc1ccc(F)cc1S(=O)(=O)NC(=O)c1cn(C)c(-c2ncccc2Cl)n1` [Example 584], in the assay on Lucilia cuprina, the pest or weed control at 100 ppm was found to be 100%. Moreover, the results for the pest or weed control at 20 ppm in the assay with Meloidogyne incognita and in the assay on Myzus persicae [2] were 90% and 100%, respectively. For the same compound, the pest or weed control at 500 g/ha in the assay with Myzus persicae [1] and in the assay with Phaedon cochleariae was 100% in each case.

For `Cc1ccc(F)cc1S(=O)(=O)NC(=O)c1cn(C)c(-c2c(F)cccc2F)n1` [Example 397], the pest or weed control at 100 ppm with Lucilia cuprina turned out to be 100%. Besides, the values for the pest or weed control at 20 ppm with Meloidogyne incognita and in the assay with Myzus persicae [2] were 90% and 100%, respectively. The pest or weed control at 500 g/ha in the assay with Myzus persicae [1] and in the assay with Phaedon cochleariae was 100% throughout.

With `Cc1c(Cl)cccc1S(=O)(=O)NC(=O)c1cn(C)c(-c2c(F)cccc2F)n1` [Example 316], the pest or weed control at 20 ppm was determined as 90% with Meloidogyne incognita and 100% with Myzus persicae [2]. For the same compound, the pest or weed control at 500 g/ha in the assay with Myzus persicae [1] turned out to be 90%; with Phaedon cochleariae, 100%.

As for `Cc1cccc(C(F)(F)F)c1S(=O)(=O)NC(=O)c1cn(C)c(-c2c(F)cccc2F)n1` [Example 369], the figures for the pest or weed control at 20 ppm in the assay on Meloidogyne incognita and in the assay on Myzus persicae [2] were 90% and 100%, respectively. The pest or weed control at 500 g/ha with Myzus persicae [1] and in the assay on Phaedon cochleariae was 100% in each case.

With `Cc1cccc(Cl)c1S(=O)(=O)NC(=O)c1cn(C)c(-c2cccc(Cl)c2Cl)n1` [Example 556], the pest or weed control at 20 ppm in the assay on Meloidogyne incognita turned out to be 90%; in the assay on Myzus persicae [2], 100%. Besides, the pest or weed control at 500 g/ha is 90% in the assay with Myzus persicae [1] and 100% in the assay on Phaedon cochleariae.

For `Cc1ccc(F)cc1S(=O)(=O)NC(=O)c1cn(C)c(-c2ccccc2Cl)n1` [Example 425], the pest or weed control at 20 ppm in the assay on Meloidogyne incognita stood at 90%; with Myzus persicae [2], 100%. Also, the pest or weed control at 500 g/ha with Myzus persicae [1] and in the assay on Phaedon cochleariae was 100% throughout.

Turning to `Cn1cc(C(=O)NS(=O)(=O)c2cccc(Cl)c2I)nc1-c1c(F)cccc1F` [Example 313], the pest or weed control at 20 ppm with Meloidogyne incognita turned out to be 90%; in the assay with Myzus persicae [2], 100%. Also, the pest or weed control at 500 g/ha came to 90% with Myzus persicae [1] and 100% in the assay on Phaedon cochleariae.

Consider `CCc1ccc(Cl)cc1S(=O)(=O)NC(=O)c1cn(C)c(-c2ncccc2Cl)n1` [Example 583], for which the pest or weed control at 20 ppm is 90% with Meloidogyne incognita and 100% in the assay with Myzus persicae [2]. For the same compound, the pest or weed control at 500 g/ha with Myzus persicae [1] and with Phaedon cochleariae was 100% in each case.
